Results published in patent publication US20230218589A1, “COMPOUND FOR PREVENTION OR TREATMENT OF A SKIN CANCER OR SKIN PRECANCER” (UNIQUEST PTY LTD, priority 2020, published 2023).

Legend:
human T cells = assay: Human T cell proliferation assay (PBMCs, anti-CD3, CellTiter-Glo); type: cell-based
Protocol: Cyclosporine A 1 mg/mL stock (CsA—Sigma) was dissolved in DMSO, Rapamycin 5 mg/mL stock (LC Labs) was dissolved in ethanol.
Under sterile conditions, a 96 well flat bottom plate with white opaque walls (Perkin Elmer) was coated with 10 μg per well of purified human anti-CD3 antibody (clone OKT-3; Biolegend) in a volume of 50 μL per well in sterile PBS. The plate was covered in parafilm and incubated overnight at 4° C. Just prior to addition of Peripheral Blood Mononuclear Cells (PBMCs), the antibody solution was removed and discarded using a multichannel pipette. Wells were washed by adding 200 μL sterile PBS to each well and incubating for 2 min. PBS wash solution was removed and discarded following incubation. The wash step was repeated once, for a total of two PBS washes.
20 mL of blood from a consenting healthy volunteer was collected into lithium heparin vacuette containers (Greiner Bio-One). Under sterile conditions, blood from each container was pooled into a single tube and mixed thoroughly with 20 mL FACS buffer (2% FBS in 1×PBS). 15 mL Ficoll-Paque (GE Healthcare) was added to two 50 mL Falcon tubes, before 20 mL of whole blood/FACS buffer mixture was carefully and slowly dispensed on top of the Ficoll layer. Tubes were centrifuged at 800 g for 20 min at room temperature with the brake off. After centrifugation, the resulting PBMC layer between the plasma and Ficoll layers was carefully removed and transferred to a new 50 mL Falcon tube. Tubes were topped up to 45 mL with FACS buffer, then centrifuged at 500 g for 15 min. Supernatant was carefully removed without disturbing cell pellet, then PBMCs from both tubes were pooled. 30 mL of pre-warmed complete RPMI media [RPMI 1640 (Gibco), 10% heat inactivated FBS (Gibco), 1× Penicillin/Streptomycin/L-Glutamine (Gibco), 100 μM 2-Mercaptoethanol (Sigma)] was added to PBMCs, before centrifugation at 500 g for 15 min at room temperature. Supernatant was removed carefully without disturbing cell pellet. PBMCs were resuspended in 1 mL complete RPMI media.
PBMCs were counted manually using a haemocytometer and cell concentration was adjusted to 1.5×10^6 cells/mL with complete RPMI media. 50 μL of cell suspension was added to appropriate wells of the 96 well flat bottom plate with white opaque walls pre-coated in human anti-CD3. The final number of cells per well was 7.5×10^4.
Cells were incubated in a humidified incubator at 37° C. with 5% CO2 for 1 hour before Compound 1 (or vehicle only) was diluted in complete RPMI medium and added to the appropriate wells at the concentration required. The final volume in all wells was 100 μL. Cells were incubated for 5 days in a humidified incubator at 37° C. with 5% CO2.
CellTiter-Glo Luminescent Cell Viability Assay (Promega) was performed to determine the level of metabolically active cells per well based on ATP quantification. CellTiter-Glo Buffer and lyophilised CellTiter-Glo Substrate were equilibrated to room temperature. CellTiter-Glo Substrate was reconstituted with 10 mL CellTiter-Glo Buffer and gently vortexed for 1 minute to create the CellTiter-Glo Reagent. The 96 well plate containing PBMCs was equilibrated to room temperature for 30 min. Once at room temperature, 100 μL of CellTiter-Glo Reagent was dispensed using a multichannel pipette into each well containing 100 μL cells and media. The plate was mixed for 2 min at room temperature on an orbital shaker to induce cell lysis. The plate was then incubated for 10 min at room temperature in the dark to stabilize the luminescence signal. Luminescence signal was recorded using a CLARIOstar Plus plate reader (BMG Labtech).
PBMCs were stimulated with human anti-CD3 antibody and T cells were allowed to proliferate at 37° C. with 5% CO2 in a humidified incubator for 5 days. Proliferation/viability was assessed via a CellTiter-Glo Luminescent Cell Viability Assay and luminescence was read using a CLARIOstar Plus plate reader. […]

FKBP12 enzyme = FKBP12 enzyme (Homo sapiens, UniProt P62942); assay: TR-FRET assay, competition for tacrolimus (FK506) binding to FKBP12; conditions: 8-point dilution 0.001 nM to 10 μM, 30 min room temperature
Protocol: The FKBP12 enzyme used in the assay is tagged with a polyhistidine sequence. An anti-6xHis antibody, labelled with a fluorescent donor, F(d), binds the tagged enzyme. The enzyme ligand, FK506 is tagged with a fluorescent acceptor, F(a) and binds the enzyme. […] In the presence of a test inhibitor which competes for FK506, the complex is disrupt& and is no longer in close proximity, resulting in emission at wavelength A due to the F(d). […] The inhibitors were added to the master mix in the assay plate containing the enzyme/antibody/ligand complex, with a final detergent concentration of 0.005%. The reaction was incubated for 30 min at room temperature and then read on a SpectraMax M5 (Molecular Devices) at wavelengths A (615 nm) and B (665 nm). The ratio between light emission (wavelength B/A) is calculated and the blank subtracted values were plotted against the inhibitor concentration in Logio molar and fitted using one site Ki non-linear regression to determine the Kd of the bound test inhibitor.

[1] = Single dose pharmacokinetics after topical application to mouse ear; type: in vivo; conditions: single topical 10 μL of 3% solution in propylene glycol to ear, LOQ 3.5 ng/mL
Protocol: The single dose pharmacokinetics of Compound 1 (Cmpd 1) was assessed by topical administration of the compound as a formulation in propylene glycol (3% concentration) applied once per day (QD) to one ear only of C57BL/6 female mice, 8 weeks of age (N=2 or 3 per timepoint; samples taken 1, 6 and 24 h post administration of Compound 1).
Compound Application: Compound 1 (10 μL of a 3% solution in propylene glycol) was applied to mouse ears using a silicone brush. The brush was cleaned with distilled water and ethanol between applications. The vehicle solution was 100% propylene glycol.
Blood processing: Cryovials were prepared containing 10 μL 0.5 M EDTA and labelled appropriately. Cardiac bleed was performed on mice and blood transferred to an Eppendorf tube. Blood (110 μL) was transferred immediately to a cryovial containing EDTA and well mixed to prevent clotting. The cryovial was placed on dry ice and transferred to a −80° C. freezer.
Ear processing: Before taking ears for pharmacokinetics the skin was cleaned with distilled water and dried with cotton balls/swab before doing 2 tape strips (one piece of tape per strip). The whole ear was removed from the mouse. The weight of the whole ear was recorded and placed into an appropriate cryovial which was placed on dry ice then transferred to a −80° C. freezer.
Sample processing: A LC/MS/MS based bioanalytical method was developed for the detection and quantification of Compound 1 in mouse blood and ears. Calibration standards and quality control samples were prepared by adding 2.5 μL of stock solutions of test compound of different concentrations into 25 μL of naïve mouse blood or ear homogenates. Control samples were prepared by spiking 2.5 μL, of water or acetonitrile into 25 μL of naïve mouse blood or ear homogenates. The blood or ear samples were transferred into polypropylene Eppendorf tubes. […] 20-40 μL of the supernatant was analysed by LCMS/MS, using the same instrument, column, Mobile phase A, Mobile phase B, gradient and other parameters as outlined above for the tumour sample processing.

HPV38-E6/E7 SCC cells = assay: Mouse back cSCC tumour model, tacrolimus diet, intra-tumoural injection; conditions: in vivo
skin tumours = conditions: 104 weeks, doses up to 260× of the recommended human dose (Protopic prescribing information); cited from earlier work
[2] = system: chemically (TPA+DMBA) induced tumour formation; conditions: topical application, mouse model (Jiang et al. 1993); cited from earlier work

Sequence of FKBP12 enzyme (P62942 whole entry, species assumed): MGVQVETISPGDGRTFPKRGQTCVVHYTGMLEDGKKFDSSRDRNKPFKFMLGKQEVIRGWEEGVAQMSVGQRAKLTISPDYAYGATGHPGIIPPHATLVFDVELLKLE

SMILES | rescue of T cell proliferation in the presence of rapamycin (human T cells; 0.3 μM, 1 μM and 3 μM Compound 1 with 1 ng/mL rapamycin, 5 days) | rescue of T cell proliferation in the presence of cyclosporine A (human T cells; 0.3 μM, 1 μM and 3 μM Compound 1 with 50 ng/mL cyclosporine A, 5 days) | rescue of T cell proliferation in the presence of tacrolimus (human T cells; 1 μM and 3 μM Compound 1 with 0.6 ng/mL tacrolimus, 5 days) | T cell proliferation/viability with Compound 1 alone (human T cells; no tacrolimus, 5 days) | Kd (FKBP12 enzyme) | Concentration in blood ([1]; 1 h) | Concentration in blood ([1]; 6 h) | Concentration in blood ([1]; 24 h) | percentage of CD69+ (activated) CD8 T cells isolated from the tumour (HPV38-E6/E7 SCC cells) | percentage of IFN gamma+ CD8 T cells isolated from the tumour (HPV38-E6/E7 SCC cells) | percentage of TNF alpha+ CD8 T cells isolated from the tumour (HPV38-E6/E7 SCC cells) | tacrolimus dependent-tumour growth compared to the vehicle control (HPV38-E6/E7 SCC cells) | tacrolimus dependent-tumour growth compared to the vehicle control, without CD8 depletion (HPV38-E6/E7 SCC cells) | tumour regression after CD8 depletion (HPV38-E6/E7 SCC cells) | T cell proliferation compared to the vehicle control (human T cells; 0.6 ng/mL tacrolimus, anti-CD3, 5 days) | association of skin tumours with daily topical doses (skin tumours) | reduction of chemically (TPA+DMBA) induced tumour formation [2]
CC[C@@H]1/C=C(\C)[C@@H](O)[C@H](C)C[C@H](OC)[C@H]2O[C@@](O)(C(=O)C(=O)N3CCCC[C@H]3C(=O)O[C@H](/C(C)=C/[C@@H]3CC[C@@H](O)[C@H](OC)C3)[C@H](C)[C@@H](O)CC1=O)[C@H](C)C[C@@H]2OC [Compound 1, 17-Ethyl-1,14,20-trihydroxy-12-[2′-(4″-hydroxy-3″-methoxycyclohexyl)-1′-methylvinyl]-23,25-dimethoxy-13,19,21,27-tetramethyl-11,28-dioxa-4-azatricyclo-[22.3.1.0^4,9]octacos-18-ene-2,3,10,16-tetraone] | significantly rescued | unable to rescue | dose dependently and significantly rescued | did not significantly alter | 2.8 nM | BLQ | BLQ | BLQ | significantly increased | significantly increased | significantly increased | significantly reduced | significantly reduced | no longer able cause tumour regression |  |  | 
C=CC[C@@H]1/C=C(\C)C[C@H](C)C[C@H](OC)[C@H]2O[C@@](O)(C(=O)C(=O)N3CCCC[C@H]3C(=O)O[C@H](/C(C)=C/[C@@H]3CC[C@@H](O)[C@H](OC)C3)[C@H](C)[C@@H](O)CC1=O)[C@H](C)C[C@@H]2OC [tacrolimus, reference compound] |  |  |  |  |  |  |  |  |  |  |  |  |  |  | inhibited | no association | 80%
